Assay [1] deals with T1, intracellular interaction between KRS and 67LR (Homo sapiens, UniProt Q15046).
T1 construct: endogenous in cells
The assay is described as follows: Co-immunoprecipitation of KRS with 67LR in cells treated with KL1. In kind it is cell-based. The method, then: (§1) As a control, an OD level of cells treated with DMSO was measured. FIG. 32 is a photograph showing cell growth in wells containing yeast cells having indicated interaction pairs in the presence or absence of CAND-KL1. In FIG. 33, in 293 cells, through co-immunoprecipitation, the KL1-dose-dependent effect on the interaction between KRS and 67LR was tested. The cells were treated with KL1 for 3 hours, 67LR was immunoprecipitated, and co-precipitation of KRS was determined by western blotting. In FIG. 34, in the presence of KL1 in indicated levels, a laminin receptor labeled with radioisotope was mixed with GST-KRS (1 μg). GST-KRS was precipitated with glutathione-Sepharose beads, and co-precipitated laminin receptor was detected with autoradiography. In FIG. 35, in A549 cells, the effect of KL1 on the intracellular level of 67LR and 37LRP was tested with western blotting. […] GST-KRS was immobilized on a CM5 Sensor Chip, and the binding was measured by a resonance unit (RU) at indicated concentrations (indicated by different colors). […]
From among the compounds, the inventors also examined whether the compound represented by Formula 15 (indicated by CAND-KL1, and KL1) can inhibit the intracellular interaction between KRS and 67LR. […] Then, 67LR was immunoprecipitated with its antibody, and co-immunoprecipitation of KRS was determined. […]

Assay [2] addresses T2, KRS-AIMP2 (Homo sapiens, UniProt Q15046).
T2 construct: expressed in transfected cells; host or cells: yeast (EGY/SH is stated for the KRS/LR pair)
Nature of the assay: Yeast two hybrid specificity test, LexA-KRS/B42-AIMP2 pair. The settings on record: compound at 50 μg/ml, DMSO control 1.3204. In kind it is cell-based. The method, then:
On the compound of the present invention obtained by screening a library of compounds, the extent of inhibition on the interaction between KRS and laminin receptor (67LR) was determined by a yeast two hybrid assay, as described below. KRS, LR, AIMP2, AIMP3 and MRS were cloned at LexA vector (clontech) and B42 vector (clontech) each so as to produce required vectors. From among the vectors, LexA-KRS vector and B42-LR vector were co-transformed into yeast EGY/SH cells, and then the yeast cells were diluted to an absorbance (540 nm wavelength) of 0.2 in galactose medium not containing uracil (Ura), histidine (His), tryptophane (Trp) and leucine (Leu), and placed in an amount of 200 u in a 96 well plate. 1 μl of each compound at a concentration of 10 mg/ml was placed in each well, incubated for 6 days, and the absorbance was measured at 540 nm. […] The inhibitory specificity of the selected compound was tested by using two different interaction pairs such as LexA-KRS/B42-AIMP2 and LexA-MRS/B42-AIMP3. […]

Assay [3] concerns the target T3, GST-KRS (Homo sapiens, UniProt Q15046).
T3 construct: made in house; host or cells: E. coli Rosetta (DE3)
Nature of the assay: Surface plasmon resonance assay (BIAcore3000). Particulars: GST-KRS immobilized on CM5 chip, binding to GST subtracted, 25° C., 1:1 binding. On the procedure:
as §1
The interaction between KRS and the compound (Formula 15) was tested by BIAcore3000 (GE healthcare). […] Then, the binding was measured by a change in a resonance unit (RU). The specific binding activity of CAND-KL1 to GST-KRS was measured by subtracting binding to GST in sensorgram. […]
(In general: In SPR one partner is held on a chip, and binding of the other changes the refractive index at the surface.)

One may read the Kd as the equilibrium constant for the complex coming apart. A high value points to lower affinity.

T1 sequence (Q15046 2-597 limits assumed): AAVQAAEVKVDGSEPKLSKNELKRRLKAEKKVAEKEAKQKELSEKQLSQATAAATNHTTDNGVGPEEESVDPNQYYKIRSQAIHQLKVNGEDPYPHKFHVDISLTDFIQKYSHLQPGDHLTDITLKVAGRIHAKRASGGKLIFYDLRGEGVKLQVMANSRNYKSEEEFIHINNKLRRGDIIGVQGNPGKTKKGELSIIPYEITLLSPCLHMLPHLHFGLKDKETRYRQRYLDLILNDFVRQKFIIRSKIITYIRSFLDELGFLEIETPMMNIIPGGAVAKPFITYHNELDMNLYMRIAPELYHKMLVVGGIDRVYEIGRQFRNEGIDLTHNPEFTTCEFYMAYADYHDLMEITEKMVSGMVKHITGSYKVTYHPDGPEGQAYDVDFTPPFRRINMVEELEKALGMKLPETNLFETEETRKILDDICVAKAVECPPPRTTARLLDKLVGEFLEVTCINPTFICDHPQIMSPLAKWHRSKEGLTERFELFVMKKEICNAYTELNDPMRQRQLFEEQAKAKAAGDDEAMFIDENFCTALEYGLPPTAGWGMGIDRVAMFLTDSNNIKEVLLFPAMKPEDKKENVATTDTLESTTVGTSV
T3 sequence (Q15046 whole entry): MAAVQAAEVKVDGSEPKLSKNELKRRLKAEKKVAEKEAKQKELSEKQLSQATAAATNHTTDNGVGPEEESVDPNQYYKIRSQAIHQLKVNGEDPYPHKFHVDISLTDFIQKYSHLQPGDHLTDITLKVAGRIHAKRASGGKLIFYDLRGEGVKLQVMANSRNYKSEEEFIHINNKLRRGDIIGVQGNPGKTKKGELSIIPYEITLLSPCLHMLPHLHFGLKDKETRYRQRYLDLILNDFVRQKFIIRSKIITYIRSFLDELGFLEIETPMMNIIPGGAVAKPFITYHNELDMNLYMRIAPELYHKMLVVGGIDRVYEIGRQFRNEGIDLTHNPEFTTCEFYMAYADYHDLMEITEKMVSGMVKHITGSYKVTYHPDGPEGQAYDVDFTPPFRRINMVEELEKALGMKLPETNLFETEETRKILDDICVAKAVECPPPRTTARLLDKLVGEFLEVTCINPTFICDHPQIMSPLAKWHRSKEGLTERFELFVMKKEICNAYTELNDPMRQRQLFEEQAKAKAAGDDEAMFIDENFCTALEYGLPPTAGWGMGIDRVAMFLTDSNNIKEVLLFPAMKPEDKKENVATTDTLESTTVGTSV
T2 sequence (Q15046 whole entry): as above

On to `CCC(C(=O)O)n1/c(=N/C(=O)c2ccc(C)cc2)sc2ccccc21` (stereo not shown) [Compound of formula 15, 2-[2-(4-Methyl-benzoylimino)-benzothiazol-3-yl]-butyric acid], for which the “level of KRS co-precipitated with 67LR” value in assay [1] (cells treated with KL1 at different concentrations, 3 hours, 67LR immunoprecipitated) is “decreased according the increase of KL1 level”. The “intracellular levels of KRS and 67LR” value in assay [1] (same co-immunoprecipitation experiment (FIG. 33)) is listed as “not changed”. Moreover, the “KRS-AIMP2 (yeast growth, OD level)” value in assay [2] is on record as 0.9497. This molecule also registered a Kd in assay [3] of around 2600 nM.

These data come from patent publication US10130611B2, “Use of benzo-heterocycle derivatives for preventing and treating cancer or for inhibiting cancer metastasis” (MEDICINAL BIOCONVERGENCE RESEARCH CENTER, priority 2009, dated 2018).
